According to patent publication US10167262B2, “Herbicidal substituted 3-arylpyrazoles” (FMC CORPORATION, priority 2014, dated 2019):
Read-outs that look alike come from different tables or passages of the source.

How the values were obtained:
Format in all cases: in vivo
[1] = test system: kochia (Kochia scoparia); assay: Test C postemergence greenhouse test, plant response rating 0-100; conditions: Bassia scoparia, post-emergence
In short: (§1)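 Scores run from 0, meaning no effect, to 100, meaning complete control, and come from visual comparison with untreated controls. Treatment was a postemergence application to plants 2–18 cm tall. Assessment followed 13 to 15 days of greenhouse growth.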

[2] = test system: chickweed (common chickweed, Stellaria media); assay: as above; conditions: Stellaria media, post-emergence
In short: as §1

[3] = test system: wild oat (Avena fatua); assay: as above; conditions: Avena fatua, post-emergence
In short: as §1

[4] = test system: Italian ryegrass (Lolium multiflorum); assay: Test C pre-/postemergence greenhouse test, plant response rating 0-100; conditions: Lolium multiflorum; for pest or weed control at 62 g/ha: 62 g ai/ha; for pest or weed control at 125 g/ha: 125 g ai/ha; for pest or weed control at 250 g/ha: 250 g ai/ha; for pest or weed control at 500 g/ha: 500 g ai/ha
Text: (§2) Seeds of plant species selected from blackgrass (Alopecurus myosuroides), Italian ryegrass (Lolium multiflorum), winter wheat (Triticum aestivum), galium (catchweed bedstraw, Galium aparine), corn (Zea mays), large (Lg) crabgrass (Digitaria sanguinalis), giant foxtail (Setaria faberii), johnsongrass (Sorghum halepense), lambsquarters (Chenopodium album), morningglory (Ipomoea coccinea), yellow nutsedge (Cyperus esculentus), pigweed (Amaranthus retroflexus), ragweed (common ragweed, Ambrosia elatior), soybean (Glycine max), barnyardgrass (Echinochloa crus-galli), oilseed rape (Brassica napus), waterhemp (common waterhemp, Amaranthus rudis), and velvetleaf (Abutilon theophrasti) were planted into a blend of loam soil and sand and treated preemergence with test chemicals formulated in a non-phytotoxic solvent mixture which included a surfactant.
(§3) At the same time, plants selected from these crop and weed species and also winter barley (Hordeum vulgare), bermudagrass (Cynodon dactylon), downy bromegrass (Bromus tectorum), canarygrass (Phalaris minor), cocklebur (common cocklebur, Xanthium strumarium), woolly cupgrass (Eriochloa villosa), deadnettle (henbit deadnettle, Lamium amplexicaule), green foxtail (Setaria viridis), goosegrass (Eleusine indica), surinam grass (Brachiaria decumbens), windgrass (Apera spica-venti), chickweed (common chickweed, Stellaria media), kochia (Kochia scoparia), and wild oat (Avena fatua), were planted in pots containing Redi-Earth® planting medium (Scotts Company, 14111 Scottslawn Road, Marysville, Ohio 43041) comprising spaghnum peat moss, vermiculite, wetting agent and starter nutrients and treated with postemergence applications of test chemicals formulated in the same manner. Plants ranged in height from 2 to 18 cm (1- to 4-leaf stage) for postemergence treatments. Treated plants and controls were maintained in a greenhouse for 13 to 15 days, after which time all species were compared to controls and visually evaluated. Plant response ratings, summarized in Table C, are based on a scale of 0 to 100 where 0 is no effect and 100 is complete control. A dash (-) response means no test result.

[5] = test system: giant foxtail (Setaria faberii); assay: as above; conditions: Setaria faberi; for pest or weed control at 62 g/ha: 62 g ai/ha; for pest or weed control at 125 g/ha: 125 g ai/ha; for pest or weed control at 250 g/ha: 250 g ai/ha; for pest or weed control at 500 g/ha: 500 g ai/ha
Text: as §2, §3

[6] = test system: soybean (Glycine max); assay: as above; conditions: Glycine max; for plant injury at 62 g/ha: 62 g ai/ha; for plant injury at 125 g/ha: 125 g ai/ha; for plant injury at 250 g/ha: 250 g ai/ha; for plant injury at 500 g/ha: 500 g ai/ha
Text: as §2, §3

[7] = test system: barnyardgrass (Echinochloa crus-galli); assay: Test A pre-/postemergence greenhouse herbicide test, visual injury rating 0-100; conditions: for pest or weed control at 500 g/ha: 500 g ai/ha
In short: (§4)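 Each species was treated both before emergence, via soil spray onto a loam–sand blend, and after emergence at the one- to two-leaf stage. Plants stayed in the greenhouse around 10 days before visual injury assessment.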

[8] = test system: large (Lg) crabgrass (Digitaria sanguinalis); assay: as above; conditions: for pest or weed control at 500 g/ha: 500 g ai/ha
In short: as §4

[9] = test system: giant foxtail (Setaria faberii); assay: as above; conditions: for pest or weed control at 500 g/ha: 500 g ai/ha
In short: as §4

[10] = test system: pigweed (Amaranthus retroflexus); assay: as above; conditions: for pest or weed control at 500 g/ha: 500 g ai/ha
In short: as §4

[11] = test system: corn (Zea mays); assay: as above; conditions: for plant injury at 500 g/ha: 500 g ai/ha
In short: as §4

[12] = test system: wheat (Triticum aestivum); assay: as above; conditions: for plant injury at 500 g/ha: 500 g ai/ha
In short: as §4

[13] = test system: velvetleaf (Abutilon theophrasti); assay: as above; conditions: for pest or weed control at 500 g/ha: 500 g ai/ha
In short: as §4

[14] = test system: morningglory (Ipomoea spp.); assay: as above; conditions: for pest or weed control at 500 g/ha: 500 g ai/ha
In short: as §4

[15] = post-emergence, Postemergence, read-out: Plant response rating (0 to 100), Ryegrass, Italian
[16] = post-emergence, Postemergence, scale 0 to 100
[17] = pre-emergence, Preemergence, read-out: Plant response rating, Ryegrass, Italian
[18] = post-emergence, Postemergence, read-out: Plant response rating (0 to 100), Foxtail, Giant
[19] = pre-emergence, Preemergence, read-out: Plant response rating, Foxtail, Giant
[20] = post-emergence, Postemergence, read-out: Plant response rating (0 to 100), Soybean
[21] = pre-emergence, Preemergence, read-out: Plant response rating, Soybean

CCOC(OCC)(c1ccccc1)c1c[nH]nc1-c1cc(Cl)cc(Cl)c1 [Compound 14, 3-(3,5-dichlorophenyl)-4-(diethoxyphenylmethyl)-1H-pyrazole]
70: Pigweed plant response rating (0 = no effect, 100 = complete control) ([10]; Preemergence, 125 g ai/ha)
80%: pest or weed control at 125 g/ha ([10]; Amaranthus retroflexus, post-emergence, 240 h, Postemergence, 125 g ai/ha, read-out: Plant response rating (0 to 100 scale), Pigweed) | pest or weed control at 125 g/ha ([13]; Abutilon theophrasti, post-emergence, 240 h, Postemergence, 125 g ai/ha, read-out: Plant response rating (0 to 100 scale), Velvetleaf)
100%: pest or weed control at 125 g/ha ([2]; 125 g ai/ha) | pest or weed control at 250 g/ha ([2]; 250 g ai/ha, scale 0 to 100) | pest or weed control at 500 g/ha ([10]; Amaranthus retroflexus, pre-emergence, 240 h, Preemergence, read-out: Plant response rating (0 to 100 scale), Pigweed) | pest or weed control at 500 g/ha ([13]; Abutilon theophrasti, pre-emergence, 240 h, Preemergence, read-out: Plant response rating (0 to 100 scale), Velvetleaf)
85%: pest or weed control at 62 g/ha ([1]; 62 g ai/ha)
40%: plant injury at 250 g/ha ([6]; pre-emergence, Preemergence)
90%: pest or weed control at 125 g/ha ([1]; 125 g ai/ha) | pest or weed control at 250 g/ha ([1]; 250 g ai/ha, scale 0 to 100) | pest or weed control at 500 g/ha ([1]; 500 g ai/ha, scale 0 to 100) | pest or weed control at 62 g/ha ([2]; 62 g ai/ha) | pest or weed control at 500 g/ha ([10]; Amaranthus retroflexus, post-emergence, 240 h, Postemergence, read-out: Plant response rating (0 to 100 scale), Pigweed) | pest or weed control at 500 g/ha ([13]; Abutilon theophrasti, post-emergence, 240 h, Postemergence, read-out: Plant response rating (0 to 100 scale), Velvetleaf)
95%: pest or weed control at 500 g/ha ([2]; 500 g ai/ha, scale 0 to 100)
10%: plant injury at 500 g/ha ([6]; pre-emergence, Preemergence)
0: Barnyardgrass plant response rating (0 = no effect, 100 = complete control) ([7]; Preemergence, 125 g ai/ha) | Crabgrass, Large plant response rating (0 = no effect, 100 = complete control) ([8]; Preemergence, 125 g ai/ha) | Foxtail, Giant plant response rating (0 = no effect, 100 = complete control) ([9]; Preemergence, 125 g ai/ha) | Corn plant response rating (0 = no effect, 100 = complete control) ([11]; Preemergence, 125 g ai/ha) | Wheat plant response rating (0 = no effect, 100 = complete control) ([12]; Preemergence, 125 g ai/ha) | Morningglory plant response rating (0 = no effect, 100 = complete control) ([14]; Preemergence, 125 g ai/ha)
50: Velvetleaf plant response rating (0 = no effect, 100 = complete control) ([13]; Preemergence, 125 g ai/ha)
0%: pest or weed control at 62 g/ha ([3]; 62 g ai/ha) | pest or weed control at 125 g/ha ([3]; 125 g ai/ha) | pest or weed control at 250 g/ha ([3]; 250 g ai/ha, scale 0 to 100) | pest or weed control at 62 g/ha [4, 15] | pest or weed control at 125 g/ha [4, 15] | pest or weed control at 250 g/ha [4, 16] | pest or weed control at 62 g/ha [4, 17] | pest or weed control at 125 g/ha [4, 17] | pest or weed control at 250 g/ha ([4]; pre-emergence, Preemergence) | pest or weed control at 500 g/ha ([4]; pre-emergence, Preemergence) | pest or weed control at 62 g/ha [5, 18] | pest or weed control at 125 g/ha [5, 18] | pest or weed control at 250 g/ha [5, 16] | pest or weed control at 500 g/ha [5, 16] | pest or weed control at 62 g/ha [5, 19] | pest or weed control at 125 g/ha [5, 19] | pest or weed control at 250 g/ha ([5]; pre-emergence, Preemergence) | pest or weed control at 500 g/ha ([5]; pre-emergence, Preemergence) | plant injury at 62 g/ha [6, 20] | plant injury at 125 g/ha [6, 20] | plant injury at 250 g/ha [6, 16] | plant injury at 500 g/ha [6, 16] | plant injury at 62 g/ha [6, 21] | pest or weed control at 125 g/ha ([7]; Echinochloa crus-galli, post-emergence, 240 h, Postemergence, 125 g ai/ha, read-out: Plant response rating (0 to 100 scale), Barnyardgrass) | pest or weed control at 500 g/ha ([7]; Echinochloa crus-galli, post-emergence, 240 h, Postemergence, read-out: Plant response rating (0 to 100 scale), Barnyardgrass) | pest or weed control at 500 g/ha ([7]; Echinochloa crus-galli, pre-emergence, 240 h, Preemergence, read-out: Plant response rating (0 to 100 scale), Barnyardgrass) | pest or weed control at 125 g/ha ([8]; Digitaria sanguinalis, post-emergence, 240 h, Postemergence, 125 g ai/ha, read-out: Plant response rating (0 to 100 scale), Crabgrass, Large) | pest or weed control at 500 g/ha ([8]; Digitaria sanguinalis, post-emergence, 240 h, Postemergence, read-out: Plant response rating (0 to 100 scale), Crabgrass, Large) | pest or weed control at 500 g/ha ([8]; Digitaria sanguinalis, pre-emergence, 240 h, Preemergence, read-out: Plant response rating (0 to 100 scale), Crabgrass, Large) | pest or weed control at 125 g/ha ([9]; Setaria faberi, post-emergence, 240 h, Postemergence, 125 g ai/ha, read-out: Plant response rating (0 to 100 scale), Foxtail, Giant) | pest or weed control at 500 g/ha ([9]; Setaria faberi, post-emergence, 240 h, Postemergence, read-out: Plant response rating (0 to 100 scale), Foxtail, Giant) | pest or weed control at 500 g/ha ([9]; Setaria faberi, pre-emergence, 240 h, Preemergence, read-out: Plant response rating (0 to 100 scale), Foxtail, Giant) | plant injury at 125 g/ha ([11]; Zea mays, post-emergence, 240 h, Postemergence, 125 g ai/ha, read-out: Plant response rating (0 to 100 scale), Corn) | plant injury at 500 g/ha ([11]; Zea mays, post-emergence, 240 h, Postemergence, read-out: Plant response rating (0 to 100 scale), Corn) | plant injury at 500 g/ha ([11]; Zea mays, pre-emergence, 240 h, Preemergence, read-out: Plant response rating (0 to 100 scale), Corn) | plant injury at 125 g/ha ([12]; Triticum aestivum, post-emergence, 240 h, Postemergence, 125 g ai/ha, read-out: Plant response rating (0 to 100 scale), Wheat) | plant injury at 500 g/ha ([12]; Triticum aestivum, post-emergence, 240 h, Postemergence, read-out: Plant response rating (0 to 100 scale), Wheat) | plant injury at 500 g/ha ([12]; Triticum aestivum, pre-emergence, 240 h, Preemergence, read-out: Plant response rating (0 to 100 scale), Wheat) | pest or weed control at 125 g/ha ([14]; Ipomoea, post-emergence, 240 h, Postemergence, 125 g ai/ha, read-out: Plant response rating (0 to 100 scale), Morningglory) | pest or weed control at 500 g/ha ([14]; Ipomoea, post-emergence, 240 h, Postemergence, read-out: Plant response rating (0 to 100 scale), Morningglory) | pest or weed control at 500 g/ha ([14]; Ipomoea, pre-emergence, 240 h, Preemergence, read-out: Plant response rating (0 to 100 scale), Morningglory)
5%: pest or weed control at 500 g/ha ([3]; 500 g ai/ha, scale 0 to 100) | pest or weed control at 500 g/ha [4, 16]
35%: plant injury at 125 g/ha [6, 21]
